Paper PMC10322702 (Nature Chemistry, 2023)
pIC50, pKd: −log10 of the molar value. Where “and” joins values, the source holds several entries; their conditions need not be identical. Equal entries are not always repeated. Numbered stars: 1 amine (or outer) side, 2 acyl side, 3 side chain; on linkers, the order of the positions; unused ones are H or OH. Bridge positions count the residues as written; N and C are the ends. Square brackets hold non-standard residues; d marks the D form. Peptide text beside a SMILES is read from it. Acbc(cis-1,3) = O=C([C@H]1C[C@@H](N[*:1])C1)[*:2]; X1 = O=C([C@@H]1CC[C@H](N[*:1])C1)[*:2]

Columns and labels:
[1] = Serum stability assay in human serum (LC/MS)
[2] = target: T1, SARS-CoV-2 M^pro (Severe acute respiratory syndrome coronavirus 2, UniProt P0DTD1); assay: biochemical; assay type: biochemical
[3] = target: T1, SARS-CoV-2 M^pro; assay: biochemical; assay type: binding; details: for kon: read-out: ka (kinetic association)
[4] = 37 °C, incubation time 1 h, relative to 0 h = 100%, technical replicates, 60 min
[5] = 37 °C, incubation time 4 h, relative to 0 h = 100%, technical replicates, 240 min
[6] = 37 °C, incubation time 8 h, relative to 0 h = 100%, technical replicates, 480 min
[7] = 37 °C, incubation time 24 h, relative to 0 h = 100%, technical replicates, 1440 min
[8] = 37 °C, incubation time 50 h, relative to 0 h = 100%, technical replicates, 3000 min
[9] = 37 °C, incubation time 100 h, relative to 0 h = 100%, technical replicates, 6000 min
[10] = human, Remaining peptide (%), 37 °C, incubation time 1 h, relative to 0 h = 100%, technical replicates
[11] = human, Remaining peptide (%), 37 °C, incubation time 4 h, relative to 0 h = 100%, technical replicates
[12] = human, Remaining peptide (%), 37 °C, incubation time 8 h, relative to 0 h = 100%, technical replicates
[13] = human, Remaining peptide (%), 37 °C, incubation time 24 h, relative to 0 h = 100%, technical replicates
[14] = human, Remaining peptide (%), 37 °C, incubation time 50 h, relative to 0 h = 100%, technical replicates
[15] = human, Remaining peptide (%), 37 °C, incubation time 100 h, relative to 0 h = 100%, technical replicates
[16] = 37 °C, incubation time 2 h, relative to 0 h = 100%, technical replicates, 120 min
[17] = human, Remaining peptide (%), 37 °C, incubation time 2 h, relative to 0 h = 100%, technical replicates

Structure (SMILES): CC[C@H](C)[C@@H]1NC(=O)[C@H](Cc2ccc(O)cc2)NC(=O)[C@H](CC(C)C)NC(=O)[C@H](CC(=O)O)NC(=O)[C@H](CCCNC(=N)N)NC(=O)[C@H](Cc2ccccc2)NC(=O)[C@@H]2CC[C@@H](C2)NC(=O)[C@H](Cc2c[nH]cn2)NC(=O)[C@H](Cc2ccccc2)NC(=O)[C@@H](Cc2ccc(O)cc2)NC(=O)CSC[C@H](C(N)=O)NC(=O)CNC(=O)[C@H](CC(C)C)NC1=O [GM5] ({CH2CO}-[dY]FH[X1]FRDLYILG[dC]-NH2; thioether N-13)
- Remaining peptide (%) [1, 4]: 101.31% and 104.14%
- Remaining peptide (%) [1, 5]: 77.04% and 80.18%
- Remaining peptide (%) [1, 6]: 83.97% and 82.30%
- Remaining peptide (%) [1, 7]: 66.27% and 59.32%
- Remaining peptide (%) [1, 8]: 29.51% and 26.23%
- Remaining peptide (%) [1, 9]: 20.75% and 19.44%
- half-life at 10 μM ([1]; human): 32 h
- remaining at 1 h, 10 μM [1, 10]: 101%
- remaining at 4 h, 10 μM [1, 11]: 78.7%
- remaining at 8 h, 10 μM [1, 12]: 83%
- remaining at 24 h, 10 μM [1, 13]: 58.4%
- remaining at 50 h, 10 μM [1, 14]: 30.7%
- remaining at 100 h, 10 μM [1, 15]: 19.9%
- pIC50 [2]: 7.40
- inhibition at 1.86 µM [2]: 100%
- inhibition at 5.62 µM [2]: 100%
- inhibition at 16.6 µM [2]: 100%
- inhibition at 50.1 µM [2]: 100%
- inhibition at […] [2]: 100%
- pKd [3]: 8.28
- kd (kinetic dissociation) [3]: 1.2 10^-3 s^-1
- kon [3]: 240000 M⁻¹ s⁻¹

Structure (SMILES): CC[C@H](C)[C@@H]1NC(=O)[C@H](CO)NC(=O)[C@H](Cc2ccccc2)NC(=O)[C@H]2C[C@H](C2)NC(=O)[C@H](Cc2c[nH]cn2)NC(=O)[C@H](Cc2ccccc2)NC(=O)[C@@H](Cc2ccc(O)cc2)NC(=O)CSC[C@H](C(N)=O)NC(=O)[C@H](CC(C)C)NC(=O)[C@H](CCCNC(=N)N)NC(=O)[C@H](Cc2ccc(O)cc2)NC(=O)[C@H](CCCNC(=N)N)NC(=O)[C@H](Cc2ccccc2)NC1=O [GM2] ({CH2CO}-[dY]FH[Acbc(cis-1,3)]FSIFRYRL[dC]-NH2; thioether N-13)
- Remaining peptide (%) ([1]; 37 °C, incubation time 0.5 h, relative to 0 h = 100%, technical replicates, 30 min): 61.67% and 57.11%
- Remaining peptide (%) [1, 4]: 55.82% and 51.95%
- Remaining peptide (%) [1, 16]: 34.08% and 32.68%
- Remaining peptide (%) [1, 5]: 19.16% and 17.53%
- Remaining peptide (%) [1, 6]: 10.08% and 8.62%
- Remaining peptide (%) [1, 7]: 1.74% and 1.76%
- half-life at 10 μM ([1]; human): 1.1 h
- remaining at 0.5 h, 10 μM ([1]; human, Remaining peptide (%), 37 °C, incubation time 0.5 h, relative to 0 h = 100%, technical replicates): 57.7%
- remaining at 1 h, 10 μM [1, 10]: 48.3%
- remaining at 2 h, 10 μM [1, 17]: 36%
- remaining at 4 h, 10 μM [1, 11]: 17.5%
- remaining at 8 h, 10 μM [1, 12]: 9.99%
- remaining at 24 h, 10 μM [1, 13]: 1.85%
- pIC50 [2]: 5.76
- inhibition at 2.75 µM [2]: 75.7%
- inhibition at 8.32 µM [2]: 96.8%
- pKd [3]: 7.15
- kd (kinetic dissociation) [3]: 15 10^-3 s^-1
- kon [3]: 210000 M⁻¹ s⁻¹

Structure (SMILES): CC(C)C[C@@H]1NC(=O)[C@H]([C@@H](C)O)NC(=O)[C@H](Cc2ccc(O)cc2)NC(=O)[C@H]([C@@H](C)O)NC(=O)[C@H](Cc2c[nH]cn2)NC(=O)[C@@H]2CCCN2C(=O)[C@@H]2CCCN2C(=O)[C@H](Cc2ccccc2)NC(=O)[C@H](C)NC(=O)[C@H](Cc2c[nH]cn2)NC(=O)[C@H](Cc2ccccc2)NC(=O)[C@@H](Cc2ccc(O)cc2)NC(=O)CSC[C@H](C(N)=O)NC1=O [GM1γ^14A] ({CH2CO}-[dY]FHAFPPHTYTL[dC]-NH2; thioether N-13)
- Remaining peptide (%) [1, 4]: 87.05% and 85.28%
- Remaining peptide (%) [1, 16]: 71.54% and 71.96%
- Remaining peptide (%) [1, 5]: 65.45% and 64.12%
- Remaining peptide (%) [1, 6]: 51.43% and 52.89%
- Remaining peptide (%) [1, 7]: 25.58% and 25.19%
- Remaining peptide (%) [1, 8]: 4.30% and 4.38%
- half-life at 10 μM ([1]; human): 8.3 h
- remaining at 1 h, 10 μM [1, 10]: 84.3%
- remaining at 2 h, 10 μM [1, 17]: 70.6%
- remaining at 4 h, 10 μM [1, 11]: 63.2%
- remaining at 8 h, 10 μM [1, 12]: 56.1%
- remaining at 24 h, 10 μM [1, 13]: 26.4%
- remaining at 50 h, 10 μM [1, 14]: 4.46%
- pIC50 [2]: < 5.30
- inhibition of M^pro (in words) [2]: inhibition was ablated
- pKd [3]: 8.00
- fold change in binding affinity relative to the original peptide [3]: fourfold weaker
- kd (kinetic dissociation) [3]: 3.2 10^-3 s^-1
- kon [3]: 320000 M⁻¹ s⁻¹

Structure (SMILES): CC(C)C[C@@H]1NC(=O)[C@H](C)NC(=O)[C@H](Cc2c[nH]cn2)NC(=O)[C@H](Cc2ccccc2)NC(=O)[C@@H](Cc2ccc(O)cc2)NC(=O)CSC[C@H](C(N)=O)NC(=O)CNC(=O)[C@@H]2CCCN2C(=O)[C@H](CCCNC(=N)N)NC(=O)[C@H](Cc2ccc(O)cc2)NC(=O)CNC(=O)[C@H](CC(C)C)NC(=O)[C@H](CC(N)=O)NC1=O [GM4γ^14A] ({CH2CO}-[dY]FHALNLGYRPG[dC]-NH2; thioether N-13)
- Remaining peptide (%) [1, 4]: 80.98% and 76.08%
- Remaining peptide (%) [1, 16]: 68.35% and 66.59%
- Remaining peptide (%) [1, 5]: 75.33% and 71.01%
- Remaining peptide (%) [1, 6]: 60.41% and 56.42%
- Remaining peptide (%) [1, 7]: 37.15% and 33.37%
- Remaining peptide (%) [1, 8]: 12.36% and 12.37%
- Remaining peptide (%) [1, 9]: 2.74% and 5.40% and 2.53%
- half-life at 10 μM ([1]; human): 11 h
- remaining at 1 h, 10 μM [1, 10]: 74.2%
- remaining at 2 h, 10 μM [1, 17]: 67.6%
- remaining at 4 h, 10 μM [1, 11]: 66.7%
- remaining at 8 h, 10 μM [1, 12]: 53.6%
- remaining at 24 h, 10 μM [1, 13]: 32.3%
- remaining at 50 h, 10 μM [1, 14]: 12.3%
- pIC50 [2]: 8.00
- inhibition at 0.209 µM [2]: 100%
- inhibition at 1.86 µM [2]: 100%
- inhibition at 5.62 µM [2]: 100%
- inhibition at 16.6 µM [2]: 100%
- inhibition at 50.1 µM [2]: 100%
- inhibition at […] [2]: 100%
- pKd [3]: 8.62
- kd (kinetic dissociation) [3]: 2.6 10^-3 s^-1
- kon [3]: 1.1e+06 M⁻¹ s⁻¹

Structure (SMILES): CC(C)C[C@@H]1NC(=O)[C@H]([C@@H](C)O)NC(=O)[C@H](Cc2ccc(O)cc2)NC(=O)[C@H]([C@@H](C)O)NC(=O)[C@H](Cc2c[nH]cn2)NC(=O)[C@@H]2CCCN2C(=O)[C@@H]2CCCN2C(=O)[C@H](Cc2ccccc2)NC(=O)[C@H]2C[C@H](C2)NC(=O)[C@H](Cc2c[nH]cn2)NC(=O)[C@H](Cc2ccccc2)NC(=O)[C@@H](Cc2ccc(O)cc2)NC(=O)CSC[C@H](C(N)=O)NC1=O [GM1] ({CH2CO}-[dY]FH[Acbc(cis-1,3)]FPPHTYTL[dC]-NH2; thioether N-13)
- Remaining peptide (%) [1, 4]: 111.08% and 111.88%
- Remaining peptide (%) [1, 5]: 108.25% and 114.45%
- Remaining peptide (%) [1, 6]: 111.46% and 107.42%
- Remaining peptide (%) [1, 7]: 74.66% and 74.47%
- Remaining peptide (%) [1, 8]: 63.33% and 64.88%
- Remaining peptide (%) [1, 9]: 44.95% and 47.73%
- half-life at 10 μM ([1]; human): 90 h
- remaining at 1 h, 10 μM [1, 10]: 111%
- remaining at 4 h, 10 μM [1, 11]: 115%
- remaining at 8 h, 10 μM [1, 12]: 116%
- remaining at 24 h, 10 μM [1, 13]: 77.3%
- remaining at 50 h, 10 μM [1, 14]: 67.1%
- remaining at 100 h, 10 μM [1, 15]: 49%
- pIC50 [2]: 7.40
- inhibition at 0.000141 µM [2]: 4.71%
- inhibition at 0.0347 µM [2]: 43.7%
- inhibition at 0.102 µM [2]: 75.5%
- inhibition at 0.309 µM [2]: 93.7%
- inhibition at 0.933 µM [2]: 100%
- inhibition at 2.75 µM [2]: 100%
- inhibition at 8.32 µM [2]: 100%
- pKd [3]: 8.64
- kd (kinetic dissociation) [3]: 0.94 10^-3 s^-1
- kon [3]: 410000 M⁻¹ s⁻¹
